In patent publication US8076295B2, “Peptide amphiphiles having improved solubility and methods of using same” (Nanotope, Inc., priority 2007, dated 2011):
“Also recorded” adds a separate entry of the source. Where a SMILES comes first, the peptide text is derived from it. The star is where a group is joined. Palmitoyl = CCCCCCCCCCCCCCCC(=O)*

Legend:
Type in all cases: physicochemical
[1] = Solubility in aqueous ammonium hydroxide buffer; details: for solubility: water containing 0.1 vol % ammonium hydroxide, water containing 0.1% by volume ammonium hydroxide
Description: SEQ ID NO:2 or SEQ ID NO:4 was dissolved at 20 mg/mL in an aqueous solution with sufficient ammoniumhydroxide to obtain a pH of 9. This solution was purified in 5 mL aliquots using an Agilent, Inc. model 1100 preparative HPLC equipped with a Phenomenex, Inc. Gemini® 5 μm C18 column (100×30 mm). An elution gradient of water and acetonitrile (each containing 0.1 vol % ammonium hydroxide buffer) was used, as shown in FIG. 2A. The flow rate was 15 mL/min, and the mobile phase was pre-heated to ca. 45° C. using a Timberline Instruments TL-105 column heater.
While the amino acid sequence change between SEQ ID NO:2 and SEQ ID NO:6 appears at first glance to be relatively minor, it nevertheless confers several important and unexpected consequences. The additional glutamic acid residue increases the aqueous solubility and broadens the type of aqueous buffers in which the molecule is soluble. Absent this modification, the only amino acid side chains that are ionized under physiological conditions in SEQ ID NO:6 form a zwitterion (e.g. Glu-Ile-Lys), which limits the molecule's solubility in most aqueous buffers. […] This change has important implications for the manufacturability and clinical development of the peptide amphiphile, as solubility in an ammonium hydroxide buffer greatly facilitates purification by HPLC.
This seemingly insignificant modification (the deletion of one methylene group from the residue) results in a greater than 20-fold increase in aqueous solubility of the peptide amphiphile in an ammonium hydroxide buffer, greatly facilitating purification by HPLC (see FIG. 2D).

[2] = Gelation kinetics and rheological properties of gels formed in artificial cerebrospinal fluid (rheometer); details: for tan(δ) (loss modulus divided by storage modulus): gel in artificial cerebrospinal fluid
Description: Chemical structures for these molecules are also depicted in FIG. 1. Experiments were performed to examine the gelation kinetics and rheological properties of SEQ ID NO:2 with SEQ ID NO:6. Peptide amphiphile samples were dissolved in water at a concentration of 10 mg/mL.
A Physica, Inc. MCR 300 Molecular Compact Rheometer equipped with a 25 mm plate was used to measure stiffness of gels formed by SEQ ID NO:2 and SEQ ID NO:6 in vitro. Samples were measured at 21° C., 0.5% shear strain, with a frequency (ω) of 10 Hz and a gap between the plates of 0.5 mm. G′ (storage modulus) and […] were measured with respect to time post-gelation.
Tan(δ) (defined as the loss modulus divided by the storage modulus) quantifies the balance between energy loss and energy storage in a material, regardless of viscosity.

[3] = Dissolution in water on pH adjustment with NaOH; details: 5 mg/mL in water, pH adjusted to 7.0-7.5 with NaOH
Description: The lyophilized peptide amphiphile powder was weighed and re-dissolved in USP pharmaceutical grade water at a concentration of 5 mg/mL. The colloidal suspension obtained was agitated in an ultrasonic bath for 30 min.

[4] = 21° C., 0.5% shear strain, 10 Hz

solubility [1] | tan(δ) (loss modulus divided by storage modulus) [2, 4] | complex shear modulus (G*) compared with SEQ ID NO:6 ([2]; one hour post-gelation, 10 mg/mL solution mixed with equal volume of artificial CSF, 21° C., 0.5% shear strain, 10 Hz) | dissolution of colloidal suspension on pH adjustment [3] | increase in aqueous solubility relative to SEQ ID NO:6 ([1]; ammonium hydroxide buffer) | SMILES | self-assembly / gel formation induced by artificial CSF ([2]; 10 mg/mL in water mixed with equal volume of artificial CSF) | solubility (in words) ([1]; 0.1 vol % ammonium hydroxide aqueous buffer)
> 20 mg/mL | significantly lower | an order of magnitude greater | go readily into solution | – | CCCCCCCCCCCCCCCC(=O)N[C@@H](CO)C(=O)N[C@@H](CC(C)C)C(=O)N[C@@H](CO)C(=O)N[C@@H](CC(C)C)C(=O)N[C@@H](C)C(=O)N[C@@H](C)C(=O)N[C@@H](C)C(=O)N[C@@H](CCC(=O)O)C(=O)N[C@@H](CCC(=O)O)C(=O)N[C@H](C(=O)N[C@@H](CCCCN)C(=O)N[C@H](C(=O)N[C@@H](C)C(=O)N[C@H](C(=O)O)C(C)C)C(C)C)[C@@H](C)CC [SEQ ID NO:2, C16H31O-Ser-Leu-Ser-Leu-Ala-Ala-Ala-Glu-Glu-Ile-Lys-Val-Ala-Val-OH] (Palmitoyl-SLSLAAAEEIKVAV-OH) | resulting in a gel with the desired properties | –
< 1 mg/mL | liquid-like | – | – | – | CCCCCCCCCCCCCCCC(=O)N[C@@H](CO)C(=O)N[C@@H](CC(C)C)C(=O)N[C@@H](CO)C(=O)N[C@@H](CC(C)C)C(=O)N[C@@H](C)C(=O)N[C@@H](C)C(=O)N[C@@H](C)C(=O)N[C@@H](CCC(=O)O)C(=O)N[C@H](C(=O)N[C@@H](CCCCN)C(=O)N[C@H](C(=O)N[C@@H](C)C(=O)N[C@H](C(=O)O)C(C)C)C(C)C)[C@@H](C)CC [SEQ ID NO:6, C16H31O-Ser-Leu-Ser-Leu-Ala-Ala-Ala-Glu-Ile-Lys-Val-Ala-Val-OH, reference compound] (Palmitoyl-SLSLAAAEIKVAV-OH) | – | relatively low solubility; also recorded: only sparingly soluble
> 20 mg/mL | – | – | go readily into solution | greater than 20 fold | CCCCCCCCCCCCCCCC(=O)N[C@@H](CO)C(=O)N[C@@H](CC(C)C)C(=O)N[C@@H](CO)C(=O)N[C@@H](CC(C)C)C(=O)N[C@@H](C)C(=O)N[C@@H](C)C(=O)N[C@@H](C)C(=O)N[C@@H](CC(=O)O)C(=O)N[C@H](C(=O)N[C@@H](CCCCN)C(=O)N[C@H](C(=O)N[C@@H](C)C(=O)N[C@H](C(=O)O)C(C)C)C(C)C)[C@@H](C)CC [SEQ ID NO:4, C16H31O-Ser-Leu-Ser-Leu-Ala-Ala-Ala-Asp-Ile-Lys-Val-Ala-Val-OH] (Palmitoyl-SLSLAAADIKVAV-OH) | – | –
